Patent publication US20010016560A1, “Herbicidal compositions” (priority 1998, published 2001)

Legend:
AMASP [1] = test: Field test Brazil, pre-emergence, heavy clay soil (Example 1); assay type: in vivo; conditions: 95 days after treatment vs untreated plot, g/ha: Cpd A 150, Tebuthiuron 500, mix 500+150
Description: (§1) [0042] The following test was conducted in Brazil: Tebuthiuron (used as the commercial formulation “Combine™”, a suspension concentrate containing […] active ingredient) and 5-cyclopropyl-4-(2-methylsulfonyl-4-trifluoromethyl)benzoylisoxazole (isoxaflutole, hereafter referred to as Compound A), which was formulated as wettable granules, were sprayed alone and in tank mix combination (spray rate 300 l/ha) to a plot 5 meters by 3 meters pre-emergence of the weeds and ratoon sugarcane (varieties RB72 454 and […]). The soil was a heavy clay soil containing 1.8% organic matter, […] (pH 5.3) and had been sown on the same day as application with the weed species (the application was made to the ratoon cane about 90 days after cutting and before re-growth). Visual assessment was made 95 days after treatment in comparison with an untreated control plot. Two replicates were performed.

BRAPL [2] = test: as above; assay type: in vivo; conditions: 95 days after treatment vs untreated plot, g/ha: Cpd A 150, Tebuthiuron 500, mix 500+150
Description: as §1

DIGHO [3] = test: as above; assay type: in vivo; conditions: 95 days after treatment vs untreated plot, g/ha: Cpd A 150, Tebuthiuron 500, mix 500+150
Description: as §1

ECHCG [4] = test: as above; assay type: in vivo; conditions: 95 days after treatment vs untreated plot, g/ha: Cpd A 150, Tebuthiuron 500, mix 500+150
Description: as §1

ELEIN [5] = test: as above; assay type: in vivo; conditions: 95 days after treatment vs untreated plot, g/ha: Cpd A 150, Tebuthiuron 500, mix 500+150
Description: as §1

PANMA = test: as above; assay type: in vivo; conditions: 95 days after treatment vs untreated plot, g/ha: Cpd A 150, Tebuthiuron 500, mix 500+150
Description: as §1

SACOF RB68 5089 [6] = test: Field test Brazil, crop effect, heavy clay soil (Example 1); assay type: in vivo, ratoon sugarcane
Description: as §1

SACOF RB72 454 [7] = test: as above; assay type: in vivo, ratoon sugarcane
Description: as §1

AMASP [8] = test: Field test Brazil, pre-emergence, light sandy soil (Example 2); assay type: in vivo; conditions: 95 days after treatment vs untreated plot, g/ha: Cpd A 150, Tebuthiuron 500, mix 500+150
Description: as §1
(§2) [0044] The following test was conducted in Brazil following the same procedure as described in Example 1 above but where the soil type was light sandy containing 1.8% organic matter, 82% sand and 13% clay (pH 5.3). Again, two replicates were performed.

BRAPL [9] = test: as above; assay type: in vivo; conditions: 95 days after treatment vs untreated plot, g/ha: Cpd A 150, Tebuthiuron 500, mix 500+150
Description: as §1, §2

DIGHO [10] = test: as above; assay type: in vivo; conditions: 95 days after treatment vs untreated plot, g/ha: Cpd A 150, Tebuthiuron 500, mix 500+150
Description: as §1, §2

ECHCG [11] = test: as above; assay type: in vivo; conditions: 95 days after treatment vs untreated plot, g/ha: Cpd A 150, Tebuthiuron 500, mix 500+150
Description: as §1, §2

ELEIN [12] = test: as above; assay type: in vivo; conditions: 95 days after treatment vs untreated plot, g/ha: Cpd A 150, Tebuthiuron 500, mix 500+150
Description: as §1, §2

SIDRH = test: as above; assay type: in vivo; conditions: 95 days after treatment vs untreated plot, g/ha: Cpd A 150, Tebuthiuron 500, mix 500+150
Description: as §1, §2

SACOF RB68 5089 [13] = test: Field test Brazil, crop effect, light sandy soil (Example 2); assay type: in vivo, ratoon sugarcane
Description: as §1, §2

SACOF RB72 454 [14] = test: as above; assay type: in vivo, ratoon sugarcane
Description: as §1, §2

[15] = pre-emergence, 95 days after treatment vs untreated plot, heavy clay soil, g/ha: Cpd A 150, Tebuthiuron 500, mix 500+150
[16] = pre-emergence, 95 days after treatment vs untreated plot, light sandy soil, g/ha: Cpd A 150, Tebuthiuron 500, mix 500+150

In the case of `CS(=O)(=O)c1cc(C(F)(F)F)ccc1C(=O)c1cnoc1C1CC1` [Cpd A, 5-cyclopropyl-4-(2-methylsulfonyl-4-trifluoromethyl)benzoylisoxazole], the “Visual assessment AMASP” value (AMASP [1]) is reported as 80, the “Visual assessment BRAPL” value (BRAPL [2]) is reported as 70 and the “Visual assessment DIGHO” value (DIGHO [3]) is reported as 75. The “Visual assessment ECHCG” value (ECHCG [4]) was 50, the “Visual assessment ELEIN” value (ELEIN [5]) was 85 and the “Visual assessment PANMA” value (PANMA) was 85. For the same compound, the “Visual assessment SACOF RB68 5089 (crop)” value (SACOF RB68 5089 [6]; in vivo) was 0, the “Visual assessment SACOF RB72 454 (crop)” value (SACOF RB72 454 [7]; in vivo) was 0 and the “Visual assessment AMASP” value (AMASP [8]) was 27.5. For the same compound, the “Visual assessment BRAPL” value (BRAPL [9]) was 15, the “Visual assessment DIGHO” value (DIGHO [10]) was 20 and the “Visual assessment ECHCG” value (ECHCG [11]) was 20. For the same compound, the “Visual assessment ELEIN” value (ELEIN [12]) was 30, the “Visual assessment SIDRH” value (SIDRH) was 10 and the “Visual assessment SACOF RB68 5089 (crop)” value (SACOF RB68 5089 [13]; in vivo) was 0. For the same compound, the “Visual assessment SACOF RB72 454 (crop)” value (SACOF RB72 454 [14]; in vivo) was 0.
`CNC(=O)N(C)c1nnc(C(C)(C)C)s1` [Tebuthiuron] was tested, and the “Visual assessment AMASP” value (AMASP [1]) was 75, the “Visual assessment BRAPL” value (BRAPL [2]) was 10 and the “Visual assessment DIGHO” value (DIGHO [3]) was 10. For the same compound, the “Visual assessment ECHCG” value (ECHCG [4]) was 10, the “Visual assessment ELEIN” value (ELEIN [5]) was 20 and the “Visual assessment PANMA” value (PANMA) was 5. The “Visual assessment SACOF RB68 5089 (crop)” value (SACOF RB68 5089 [6]; [15]) was 0, the “Visual assessment SACOF RB72 454 (crop)” value (SACOF RB72 454 [7]; [15]) was 0 and the “Visual assessment AMASP” value (AMASP [8]) was 70. The “Visual assessment BRAPL” value (BRAPL [9]) was 20, the “Visual assessment DIGHO” value (DIGHO [10]) was 20 and the “Visual assessment ECHCG” value (ECHCG [11]) was 15. For the same compound, the “Visual assessment ELEIN” value (ELEIN [12]) was 20, the “Visual assessment SIDRH” value (SIDRH) was 60 and the “Visual assessment SACOF RB68 5089 (crop)” value (SACOF RB68 5089 [13]; [16]) was 0. The “Visual assessment SACOF RB72 454 (crop)” value (SACOF RB72 454 [14]; [16]) was 0.
